Values quoted from earlier work in US12564203B2, “Coating composition comprising pH-sensitive polymer” (CJ CHEILJEDANG CORPORATION, priority 2020, dated 2026).

Details: degree of hydrophilicity (hydrophobicity) of an amino acid

SMILES | hydropathy index
CC[C@H](C)[C@H](N)C(=O)O [isoleucine] | 4.5
CC(C)[C@H](N)C(=O)O [valine] | 4.2
NCCCC[C@H](N)C(=O)O [lysine] | −3.9
N=C(N)NCCC[C@H](N)C(=O)O [arginine] | −4.5
